Laboratory results published in article PMC10628242, “Enzymatic β-elimination in natural product O- and C-glycoside deglycosylation” (Nature Communications, 2023).

Molecular target: T1, PuCGE (human intestinal bacterium PUE, UniProt A0A3Q9WUX0+A0A3Q9WXL1, A0A3Q9WUX0:Y39F)
T1 construct: gene dgpC; heterodimer alpha (39,205 Da) + beta (18,313 Da), co-expressed from pET-Duet-1 in E. coli; N-terminal Strep-tag II; Mn2+ enzyme
T1 sequence (A0A3Q9WXL1 1-324): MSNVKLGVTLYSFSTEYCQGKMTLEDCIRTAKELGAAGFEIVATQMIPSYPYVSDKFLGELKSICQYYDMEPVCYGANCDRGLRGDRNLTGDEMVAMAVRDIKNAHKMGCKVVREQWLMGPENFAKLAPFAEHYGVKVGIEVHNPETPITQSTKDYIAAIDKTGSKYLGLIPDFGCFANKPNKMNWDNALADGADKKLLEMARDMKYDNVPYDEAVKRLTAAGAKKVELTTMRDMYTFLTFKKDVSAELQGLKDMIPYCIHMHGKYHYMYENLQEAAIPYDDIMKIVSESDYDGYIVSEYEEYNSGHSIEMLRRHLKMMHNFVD
T1 sequence (A0A3Q9WUX0 1-142 Y39F): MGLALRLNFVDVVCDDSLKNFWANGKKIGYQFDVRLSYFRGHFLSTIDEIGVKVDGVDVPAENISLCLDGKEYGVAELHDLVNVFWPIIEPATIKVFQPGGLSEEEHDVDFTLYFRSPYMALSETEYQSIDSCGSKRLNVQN
Test: HPLC of aglycone release
Type: biochemical
Details: 2.0 mM substrate; potassium phosphate pH 6.0, 37 °C; text puts Tyr39 in beta, plasmid name puts Y39F on alpha

O=C(CCc1ccc(O)cc1)c1c(O)cc(O)cc1O[C@@H]1O[C@H](CO)[C@@H](O)C(=O)[C@H]1O [3-keto-phlorizin, 3,5-dihydroxy-2-[3-(4-hydroxyphenyl)-1-oxopropyl]phenyl β-D-ribo-hexopyranosid-3-ulose]
HPLC of aglycone release: The mutated PuCGE exhibits only a minor loss of 3-keto-phlorizin activity
